This passage reports inhibition results from patent US5475009A, “1, 2-dialkoxyethanes as 5-lipoxygenase inhibitors” (Abbott Laboratories, priority 1994, dated 1995).

In the assay the target is T1, 5-Lipoxygenase (Homo sapiens, UniProt P09917).
T1 construct: endogenous in cells; host or cells: human heparinized whole blood (its leukocytes)
T1 sequence (P09917 1-674): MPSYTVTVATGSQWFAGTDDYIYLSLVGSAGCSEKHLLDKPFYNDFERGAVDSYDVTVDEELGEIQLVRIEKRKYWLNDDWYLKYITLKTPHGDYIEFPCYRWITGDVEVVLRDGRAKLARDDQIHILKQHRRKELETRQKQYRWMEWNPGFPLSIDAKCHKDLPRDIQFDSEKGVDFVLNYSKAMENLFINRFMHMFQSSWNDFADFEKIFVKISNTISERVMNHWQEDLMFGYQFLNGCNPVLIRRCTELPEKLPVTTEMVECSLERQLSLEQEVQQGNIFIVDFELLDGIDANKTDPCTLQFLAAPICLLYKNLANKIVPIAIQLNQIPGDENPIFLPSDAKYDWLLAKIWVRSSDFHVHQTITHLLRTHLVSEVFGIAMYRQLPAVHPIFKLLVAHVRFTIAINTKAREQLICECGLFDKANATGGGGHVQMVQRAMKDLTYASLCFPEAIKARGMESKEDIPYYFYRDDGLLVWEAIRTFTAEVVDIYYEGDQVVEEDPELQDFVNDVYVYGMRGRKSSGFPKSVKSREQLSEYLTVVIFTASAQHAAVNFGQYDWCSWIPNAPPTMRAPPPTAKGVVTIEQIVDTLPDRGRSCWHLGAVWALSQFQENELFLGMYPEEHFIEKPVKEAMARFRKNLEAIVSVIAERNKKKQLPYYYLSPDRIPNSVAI
In words: Inhibition of calcium ionophore A23187-induced LTB4 biosynthesis in human whole blood (radioimmunoassay). The note with it: human heparinized whole blood, 15 min preincubation, A23187 8.3 μM, 30 min, read-out: Inhibition of stimulated LTB4 formation in human whole blood (IC50 (10^-6 M)); for inhibition at 0.2 µM: @ 0.20 μM. Format: cell-based. Here is the method: Inhibition of leukotriene biosynthesis was evaluated in an assay, involving calcium ionophore-induced LTB4 biosynthesis expressed human whole blood. Human heparinized whole blood was preincubated with test compounds or vehicle for 15 min at 37° C. followed by calcium ionophore A23187 challenge (final concentration of 8.3 μM) and the reaction terminated after 30 min by adding two volumes of methanol containing prostaglandin B2 as an internal recovery standard. The methanol extract was analyzed for LTB4 using a commercially available radioimmunoassay.
In Vitro Inhibitory Potencies of Compounds of this Invention
Against 5-Lipoxygenase from Stimulated LTB4
Formation in Human Whole Blood

The inhibition is how much of the control response was suppressed. As to `CO/N=C(\c1cc(F)cc(OCc2ccc3ccccc3c2)c1)[C@H]1COC(C)(C)O1` [4(E oxime), E-(4S)-O-methyl-2,2-dimethyl-4-[(5-fluoro-3-(napth-2-ylmethyloxy)phenyl)oximinomethyl]-1,3-dioxolane], the inhibition at 0.2 µM came to 100%.

`CO/N=C(/c1cc(F)cc(OCc2ccc3c(ccc(=O)n3C)c2)c1)[C@H]1COC(C)(C)O1` [Example 6, Z-(4S)-O-methyl-2,2-dimethyl-4-[(5-fluoro-3-(1,2-dihydro-1-methyl-2-oxoquinoline-6-ylmethyloxy)phenyl)oximinomethyl]-1,3-dioxolane]: the inhibition at 0.2 µM stood at 83%.

As to `COC[C@@H](OC)[C@@H](OC)c1cc(F)cc(OCc2ccc3ccccc3c2)c1` [Example 7, anti-(1S, 2R)-1-[(5-fluoro-3-(napth-2-ylmethyloxy)phenyl)]-1,2,3-trimethoxypropane], the inhibition at 0.2 µM came to 95%.

As to `CO/N=C(\c1cc(F)cc(OCc2ccc3c(ccc(=O)n3C)c2)c1)[C@H]1COC(C)(C)O1` [Example 5, E-(4S)-O-methyl-2,2-dimethyl-4-[(5-fluoro-3-(1,2-dihydro-1-methyl-2-oxoquinoline-6-ylmethyloxy)phenyl)oximinomethyl]-1,3-dioxolane], under “@ 0.10 μM”, the inhibition at 0.1 µM stood at 95%.

`COC[C@@H](OC)[C@H](OC)c1cc(F)cc(OCc2ccc3ccccc3c2)c1` [Example 8, syn-(1R, 2R)-1-[(5-fluoro-3-(napth-2-ylmethyloxy)phenyl)]-1,2,3-trimethoxypropane]: the inhibition at 0.78 µM worked out at 92%.

As for `CO/N=C(/c1cc(F)cc(OCc2ccc3ccccc3c2)c1)[C@H]1COC(C)(C)O1` [4(Z oxime), Z-(4S)-O-methyl-2,2-dimethyl-4-[(5-fluoro-3-(napth-2-ylmethyloxy)phenyl)oximinomethyl]-1,3-dioxolane], the inhibition at 0.78 µM is 78%.
